# Laboratory results: patent publication US20220144839A1, “INDOLE AHR INHIBITORS AND USES THEREOF” (Ikena Oncology, Inc., priority 2018, published 2022)
# Target: T1, AHR (UniProt P35869)
# T1 sequence (P35869 1-848): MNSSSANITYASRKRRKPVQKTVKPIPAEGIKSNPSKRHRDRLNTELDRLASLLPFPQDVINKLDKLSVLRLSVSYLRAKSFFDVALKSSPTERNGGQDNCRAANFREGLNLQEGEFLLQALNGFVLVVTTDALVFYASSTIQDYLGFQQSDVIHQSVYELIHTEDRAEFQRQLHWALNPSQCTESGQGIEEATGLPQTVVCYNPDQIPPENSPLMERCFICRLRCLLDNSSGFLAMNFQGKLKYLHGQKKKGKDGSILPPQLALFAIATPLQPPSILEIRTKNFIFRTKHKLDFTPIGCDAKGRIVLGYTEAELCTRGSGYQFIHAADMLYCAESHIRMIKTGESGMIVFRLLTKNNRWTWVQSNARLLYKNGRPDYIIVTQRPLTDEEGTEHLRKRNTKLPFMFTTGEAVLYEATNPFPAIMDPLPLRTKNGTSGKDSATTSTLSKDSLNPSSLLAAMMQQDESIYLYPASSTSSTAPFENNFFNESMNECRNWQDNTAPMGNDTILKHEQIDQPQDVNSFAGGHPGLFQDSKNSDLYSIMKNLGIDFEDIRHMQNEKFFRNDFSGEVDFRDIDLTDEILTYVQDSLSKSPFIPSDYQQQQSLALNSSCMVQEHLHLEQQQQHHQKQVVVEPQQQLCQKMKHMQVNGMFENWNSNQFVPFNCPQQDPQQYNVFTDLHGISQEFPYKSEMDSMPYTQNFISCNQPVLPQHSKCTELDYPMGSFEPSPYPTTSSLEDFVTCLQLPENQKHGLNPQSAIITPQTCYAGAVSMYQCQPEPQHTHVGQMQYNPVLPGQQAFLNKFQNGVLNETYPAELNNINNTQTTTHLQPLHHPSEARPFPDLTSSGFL
# Assay: DRE-Luciferase Reporter Assay (Alternate Method), Example 1B
# Type: cell-based
# Settings: concentration which inhibits half of the luciferase activity induced by AHR activating ligand; DRE-luciferase reporter cell line
# How it was run: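 Murine (Hepa1-6, Hepa-1c1c7) or human (HepG2) cells carrying a stable or transient DRE-luciferase reporter, stimulated with an AHR agonist (e.g. TCDD, kynurenine, ITE, BNF, FICZ) plus compound at plating or after overnight culture at 37 °C. Luciferase read after 4, 15 or 24 h; IC50 as concentration halving agonist-only signal relative to no-ligand baseline.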
row,SMILES,IC50 [nM]
1,"CC(C)c1cnn2c(N[C@H]3CC[C@H](O)CC3)nc(-c3cncc(F)c3)nc12 [Compound I-44a, 4-[[2-(5-Fluoro-3-pyridyl)-8-isopropyl-pyrazolo[1,5-a][1,3,5]triazin-4-yl]amino]cyclohexanol]",> 1500
2,"CC(C)c1cnn2c(N[C@H]3CC[C@@H](O)CC3)nc(-c3cncc(F)c3)nc12 [Compound I-44b, 4-[[2-(5-Fluoro-3-pyridyl)-8-isopropyl-pyrazolo[1,5-a][1,3,5]triazin-4-yl]amino]cyclohexanol]",> 1500
3,"CC(C)c1cnn2c(NCCNc3ccccn3)nc(-c3cncc(F)c3)nc12 [Compound I-45, N′-[2-(5-Fluoro-3-pyridyl)-8-isopropyl-pyrazolo[1,5-a][1,3,5]triazin-4-yl]-N-(2-pyridyl)ethane-1,2-diamine]",1000 to 1500
4,"CC(C)c1cnn2c(N[C@H]3CCc4[nH]c5ccccc5c4C3)nc(-c3cncc(F)c3)nc12 [Compound I-47, (3S)—N-[2-(5-Fluoro-3-pyridyl)-8-isopropyl-pyrazolo[1,5-a][1,3,5]triazin-4-yl]-2,3,4,9-tetrahydro-1H-carbazol-3-amine]",< 500
5,"CC(C)c1cnn2c(N[C@@H]3CCc4ccccc4C3)nc(-c3cncc(F)c3)nc12 [Compound I-48a, 2-(5-Fluoro-3-pyridyl)-8-isopropyl-N-[(2R)-tetralin-2-yl]pyrazolo[1,5-a][1,3,5]triazin-4-amine]",> 1500
6,"CC(C)c1cnn2c(N[C@H]3CCc4ccccc4C3)nc(-c3cncc(F)c3)nc12 [Compound I-48b, 2-(5-Fluoro-3-pyridyl)-8-isopropyl-N-[(2S)-tetralin-2-yl]pyrazolo[1,5-a][1,3,5]triazin-4-amine]",> 1500
7,"CC(CO)CNc1nc(-c2cncc(F)c2)nc2c(C(C)C)cnn12 (centres unmarked) [Compound I-49, 3-[[2-(5-Fluoro-3-pyridyl)-8-isopropyl-pyrazolo[1,5-a][1,3,5]triazin-4-yl]amino]-2-methyl-propan-1-ol]",> 1500

# Continued, values first:
row,IC50 [nM],SMILES
1,> 1500,"Fc1cncc(-c2nc(N[C@@H]3CCc4[nH]c5ccccc5c4C3)n3nc4c(c3n2)CNCC4)c1 [Compound I-50, 2-(5-Fluoro-3-pyridyl)-N-[(3R)-2,3,4,9-tetrahydro-1H-carbazol-3-yl]-7,8,9,10-tetrahydropyrido[2,3]pyrazolo[2,4-c][1,3,5]triazin-4-amine]"
2,< 500,"CNc1cnn2c(N[C@@H]3CCc4[nH]c5ccccc5c4C3)nc(-c3cncc(F)c3)nc12 [Compound I-51, 2-(5-Fluoro-3-pyridyl)-N8-methyl-N4-[(3R)-2,3,4,9-tetrahydro-1H-carbazol-3-yl]pyrazolo[1,5-a][1,3,5]triazine-4,8-diamine]"
3,500 to 1000,"CN1CCN(c2cnn3c(N[C@@H]4CCc5[nH]c6ccccc6c5C4)nc(-c4cncc(F)c4)nc23)CC1 [Compound I-52, (3R)—N-[2-(5-Fluoro-3-pyridyl)-8-(4-methylpiperazin-1-yl)pyrazolo[1,5-a][1,3,5]triazin-4-yl]-2,3,4,9-tetrahydro-1H-carbazol-3-amine]"
4,500 to 1000,"CC(C)c1cnn2c(N[C@@H]3CCc4[nH]c5ccccc5c4C3)nc(-c3cnsc3)nc12 [Compound I-53, (3R)—N-(8-Isopropyl-2-isothiazol-4-yl-pyrazolo[1,5-a][1,3,5]triazin-4-yl)-2,3,4,9-tetrahydro-1H-carbazol-3-amine]"
5,> 1500,"CC(C)c1cnn2c(NCCCCO)nc(-c3cnsc3)nc12 [Compound I-54, 4-[(8-Isopropyl-2-isothiazol-4-yl-pyrazolo[1,5-a][1,3,5]triazin-4-yl)amino]butan-1-ol]"
6,> 1500,CC(C)c1cnn2c(N[C@H]3Cc4cncnc4NC3=O)nc(-c3cncc(F)c3)nc12 [Compound I-55a]
7,> 1500,"CC(C)c1cnn2c(N[C@@H]3Cc4cncnc4NC3=O)nc(-c3cncc(F)c3)nc12 [Compound I-55b, (6R)-6-[[2-(5-fluoro-3-pyridyl)-8-isopropyl-pyrazolo[1,5-a][1,3,5]triazin-4-yl]amino]-6,8-dihydro-5H-pyrido[2,3-d]pyrimidin-7-one]"
